Laboratory results reported in US6890762B1, “Method for measuring physiocochemical properties of tissues of cells, method for examining chemicals, and apparatus therefor” (Matsushita Technical Information Services Co., Ltd., priority 1996, dated 2005).

What was measured:
slice of a rat heart = experiment: spontaneous activity potential of cultivated rat heart slice on integrated multiple electrode; assay type: cell-based; conditions: final concentration of 1 mM, added on the fifth day of the culturing
Description: This slice of a rat heart has been cultivated as explained below. […] The same culture medium as described in the first example was used. The structure of the integrated multiple electrode 2 and the surface processing was the same as described in the first example. In order to increase the adhesive strength between the tissue (the cells) and the microelectrodes 11 of the integrated multiple electrode 2, collagen gel (under 50 μm thick) has been applied to the surface of the integrated multiple electrode 2 before the culturing. Then the rat heart slice is placed and cultivated on the collagen gel where the microelectrodes 11 are. The rat heart slice is prepared, so that a sinoatrial node or an atrioventricular node is included. […] This culturing method is explained below. (a) A heart is taken from a two days old SD rat, and immersed in a Hanks' balanced salt solution cooled with ice water, with 0.25 vol. % D-glucose. The hanks' balanced salt solution is renewed several times to rinse out the blood completely. (b) Careful incision and preparation of a heart slice is performed, so that a sinoatrial node and an atrioventricular node are included in the heart slice. (c) The slice is adjusted with micro-scissors used in eye surgery to a size of about 1×1 mm. […]

[1] = system: slice of the cerebral cortex of a rat; experiment: induced potential of cultivated rat cerebral cortex slice on integrated multiple electrode; assay type: cell-based; conditions: for chronic effect on the induced potential: 3 days after addition on the third day of culturing
Description: In this example, a slice of the cerebral cortex of a rat was used as nervous tissue and cultivated with the culturing method described below. As a change in the physical and chemical environment, the stimulant drug methamphetamine has been added to the culturing fluid. Furthermore, the electrophysiological properties of the tissue or cells, that is the induced potential when a stimulus has been applied, were measured as the physical and chemical properties of the tissue or cells.
Preceding the culturing of the cells, the surface of the integrated multiple electrode 2 was covered with collagen gel not thicker than 50 μm, to promote the adhesive strength between the microelectrodes 11 of the integrated multiple electrode 2 and the cells. Then the cerebral cortex slice of the rat (not thicker than 500 μm) was placed and cultivated on top of the microelectrodes 11 and the collagen gel. FIGS. 10(a)-(e) show the measured induced potentials 30 min after methamphetamine has been added in different concentrations to the culture medium on the sixth day of culturing, and FIGS. 11(a)-(c) show the measured induced potentials 3 days after methamphetamine has been added in different concentrations to the culture medium on the third day of culturing, together with the induced potential before the addition of the methamphetamine. In other words, FIGS. 10(a)-(e) show the acute effect of the methamphetamine and FIGS. 11(a)-(c) show the chronic effect of the methamphetamine.
(4-2) Culturing Method for a Rat Cerebral Cortex Slice
(a) A brain is taken from a two days old SD rat, and immersed in a Hanks' balanced salt solution cooled in iced water, with 0.25 vol. % D-glucose.
(b) In the cooled Hanks' balanced salt solution with 0.25 vol.% D-glucose, the meninges attached to the brain is removed carefully without damaging the cerebral cortex with a sharp-tipped pincette.
(c) A section is made with micro-scissors used in eye surgery, about 500 μm from the corpus callosum on one side of the cerebral cortex from which the meninges has been removed along the corpus callosum from the occipital lobe towards the frontal lobe.
(d) Next, a slice is prepared with micro-scissors used in eye surgery by cutting vertically 200-300 μm into the cerebral cortex from the sectional plane described under (c).
(e) Furthermore, the slice is adjusted with micro-scissors used in eye surgery to a size of about 1×1 mm.
(f) The integrated multiple electrode, the preparation of which has been explained under “(3) Surface Processing of the Integrated Multiple Electrode 2”, is taken out of the CO2 incubator, the adjusted slice of the cerebral cortex is carefully taken up without damaging it with a pipette with at least 2 mm opening diameter, and moved into the well of the integrated multiple electrode 2.
(g) The cerebral cortex is placed on the microelectrodes 11 with a layered portion pointing upwards, carefully so as not to damage the cerebral cortex, using a Pasteur pipette, the tip of which has been smoothed by heating with a burner.
(h) After the slice of the cerebral cortex has been placed on the integrated multiple electrode 2, the amount of the culture medium is adjusted so that the bottom of the slice is immersed in the culture medium and the top of the slice is in the open air.
(i) After the adjustment of the culture medium, the integrated multiple electrode 2 is placed on a Petri dish, about 5 mL of 37° C. sterile water is poured onto the Petri dish to prevent dehydration of the culture medium, and the integrated multiple electrode 2 is again placed in the CO2 incubator.
(j) While observing the amount of the culture medium, the culture medium was renewed once every day. The amount of the culture medium is adjusted as described in (i).

Structure (SMILES) | beat frequency of the spontaneous activity potential versus before the addition (slice of a rat heart) | chronic effect on the induced potential ([1]; 0.01 mM methamphetamine) | acute effect on the induced potential ([1]; 0.1 mM methamphetamine, 30 min after addition on the sixth day of culturing) | chronic effect on the induced potential ([1]; 0.1 mM methamphetamine) | acute effect on the induced potential (deflection) ([1]; 0.5 mM methamphetamine, 30 min after addition on the sixth day of culturing) | acute effect on the induced potential ([1]; 1 mM methamphetamine, 30 min after addition on the sixth day of culturing) | induced potential after removal of the substance (chronic) ([1]; after the methamphetamine has been removed, chronic exposure) | induced potential after removal of the substance (acute) ([1]; methamphetamine removed from the fluid, culture medium returned to usual composition)
CNCC(O)c1ccc(O)c(O)c1 (centres unmarked) [adrenaline] | noticeably higher |  |  |  |  |  |  | 
CN[C@@H](C)Cc1ccccc1 [methamphetamine] |  | disappeared | no noticeable acute effect | disappeared almost completely | somewhat smaller | disappeared almost completely | did not recover | recovered to almost the same condition as before
